Measurements taken from patent US12336977B2, “Nitenin analogue compounds and their use in the treatment of chronic and acute pain” (SEA4US-BIOTECNOLOGIA E RECURSOS MARINHOS, LDA., priority 2019, dated 2025).

Key:
[1] = system: CFA rats (knee administrations of Complete Freund's Adjuvant on Wistar rats); assay: inflammatory pain rat model CFA, von Frey filaments; format: in vivo
Protocol: […]
(§1) For efficacy studies, nociception was assessed in all animals from all pain models by regular behavioural monitoring, by quantifying the sensitivity to mechanical stimuli with Von Frey filaments, and consequently reflecting hyperalgesia when hypersensitive. […] Intraperitoneal administration was tested in CFA rats (23 days after CFA injection), with 10 times the nitenin quantity administered by I.V. injections. […] Oral administration of nitenin through stomach gavages (endogastric), with 100 times the quantity administered by I.V. injections, was tested in CCI rats (31 days after surgery). […]

[2] = system: K+ currents of small diameter trigeminal ganglion neurons (sdTGNs); assay: whole-cell voltage-clamp of K+ currents in sdTGNs; format: cell-based, rat
Protocol: The nitenin analogue compounds of the present application were first obtained from the marine sponge Spongia agaracina captured in Sagres, Portugal, but have also been chemically synthesized.
(§2) For the electrophysiological recordings of the ex vivo material, voltage-clamp recordings were performed on neurons isolated from rat DRGs (and TGs). Recordings were performed from the soma that often contained the proximal fraction of axon, 1 hour after the end of the cell isolation process (includes enzymatic and mechanical treatment).

[3] = system: slow currents from large diameter DRG neurons; assay: slow currents of large diameter DRG neurons; format: cell-based, rat; conditions: relative to sdDRGNs
Source text: The K^+ currents affected by the identified compounds, recorded from sdDRGNs (and sdTGNs) by whole-cell voltage-clamp techniques, were object of intensive research by the applicant in the area of pain neurophysiology. The use of rat pain models was fundamental to perform previous target validation, i.e., to determine the K^+ current component differentially expressed in pain conditions. […] The nature of the recorded modulatory effect on the currents was studied by monitoring several biophysical parameters, such as voltage dependencies of activation and inactivation and kinetics. The specificity of the bioactivity was carried out by comparing the pharmacological effect on currents recorded from the sdDRGNs with those in other types of dorsal root ganglia (medium and large diameter DGRs).
Lastly, regarding specificity, it is important to note that the slow currents obtained from large diameter DRG neurons are around 10 times less sensitive to nitenin.

[4] = system: CIPN rats (paclitaxel); assay: chemotherapy-induced peripheral neuropathy rat model CIPN, von Frey filaments; format: in vivo; conditions: I.V.; 42 days after paclitaxel
Protocol: […]
as §1

[5] = system: voltage-activated Na+ currents of sdDRGns; assay: whole-cell voltage-clamp of voltage activated Na+ currents in sdDRGns; format: cell-based, rat; conditions: 0.1 μg/ml, 0.29 μM (FIG. 1.b)
Protocol: FIG. 1 illustrates the effect of nitenin (0.1 μg/ml) on voltage activated currents recorded from small diameter Dorsal Root Ganglia neurons (sdDRGns) • a) In sdDRGns, voltage-activated outward potassium (K^+) currents were evoked by a depolarizing step to +20 mV (holding potential of −70 mV) preceded by a hyperpolarizing pre-pulse to −120 mV. […] Typical voltage activated K^+ current traces recorded before and in the presence of nitenin (0.1 μg/ml); lower trace corresponding to the current subtraction, fit with a single-exponential function (time constant τ˜150 ms). ii.
as §2

[6] = molecular target: T1, hKv1.6 (Homo sapiens, UniProt P17658); assay: voltage-clamp of K+ currents in CHO-K1 cells expressing hKv1.6; format: cell-based
T1 construct: expressed in transfected cells; host or cells: CHO-K1
T1 sequence (P17658 whole entry): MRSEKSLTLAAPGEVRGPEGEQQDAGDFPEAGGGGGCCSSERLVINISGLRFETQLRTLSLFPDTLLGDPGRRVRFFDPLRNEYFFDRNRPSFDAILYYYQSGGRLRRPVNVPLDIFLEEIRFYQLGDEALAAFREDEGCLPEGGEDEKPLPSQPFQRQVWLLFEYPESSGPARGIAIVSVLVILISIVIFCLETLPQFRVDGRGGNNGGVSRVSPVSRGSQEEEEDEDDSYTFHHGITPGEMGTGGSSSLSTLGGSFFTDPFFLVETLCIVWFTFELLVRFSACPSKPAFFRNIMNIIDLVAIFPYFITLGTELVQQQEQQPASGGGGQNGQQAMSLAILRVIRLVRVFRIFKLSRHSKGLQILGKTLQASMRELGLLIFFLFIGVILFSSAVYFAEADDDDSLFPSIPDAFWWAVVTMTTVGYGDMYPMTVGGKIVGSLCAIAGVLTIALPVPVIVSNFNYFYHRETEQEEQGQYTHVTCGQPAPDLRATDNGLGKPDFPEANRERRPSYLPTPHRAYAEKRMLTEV
Source text: (§3) As measure of Ifast, peak current was used, whereas, as a measure of Islow, the current value was obtained at the end of the command pulse (see FIG. 1). Values are expressed as mean±S.E.M. For Islow, a dual phase relationship can be observed. […] Kv1.3 channel is the most sensitive channel (around 6-fold more sensitive in comparison to the “next most sensitive one”, the Kv1.2) Kv1.2, Kv1.1 and Kv1.6 show similar, intermediate sensitivities to nitenin. In opposition, Kv1.4 is the less sensitive (˜31 times less sensitive).
(§4) Additionally, drug sensitivity to different voltage-activated channels was assessed by studying the drug effect on currents recorded from chinese hamster ovary (CHO) cells stably transfected with different human Kv channel subunits (Kv1.1, Kv1.2, Kv1.3, Kv1.4 and Kv1.6).
(§5) The higher sensitivity of nitenin to Islow (rather than Ifast) and the nature of the nitenin sensitive current (see nitenin sensitive current in FIG. 1.b) urged to understand which K^+ channel(s) do underline Islow. By considering which Kv channel subunits are known to be expressed in DRG, and the biophysical nature of the nitenin-sensitive current, nitenin was tested on whole-cell currents recorded from CHO cells expressing hKv1.1, hKv1.2, hKv1.3, hKv1.4 and hKv1.6. […] Current inhibition was measured at the end of the 1000 ms pulse.

[7] = molecular target: T2, hKv1.3 (Homo sapiens, UniProt P22001); assay: voltage-clamp of K+ currents in CHO-K1 cells expressing hKv1.3; format: cell-based; conditions: inhibition measured at end of 1000 ms pulse, read-out: IC50 of K+ current inhibition, hKv1.3
T2 construct: expressed in transfected cells; host or cells: CHO-K1
T2 sequence (P22001 whole entry): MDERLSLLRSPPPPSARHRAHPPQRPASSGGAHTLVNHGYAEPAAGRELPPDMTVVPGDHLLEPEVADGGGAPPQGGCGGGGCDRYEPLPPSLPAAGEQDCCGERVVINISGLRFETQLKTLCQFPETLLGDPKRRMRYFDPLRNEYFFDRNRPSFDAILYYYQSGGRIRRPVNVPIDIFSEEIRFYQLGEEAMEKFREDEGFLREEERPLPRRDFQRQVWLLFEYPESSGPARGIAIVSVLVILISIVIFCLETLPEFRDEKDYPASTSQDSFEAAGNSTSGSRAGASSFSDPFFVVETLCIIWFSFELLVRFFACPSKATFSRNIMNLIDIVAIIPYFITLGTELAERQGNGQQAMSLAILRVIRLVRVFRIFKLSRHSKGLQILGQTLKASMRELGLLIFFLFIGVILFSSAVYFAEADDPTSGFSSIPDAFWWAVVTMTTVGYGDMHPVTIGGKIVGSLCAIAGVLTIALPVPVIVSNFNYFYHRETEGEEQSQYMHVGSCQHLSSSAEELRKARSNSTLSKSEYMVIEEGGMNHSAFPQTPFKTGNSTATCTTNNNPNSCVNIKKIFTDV
Source text: as §3, §4, §5

## C/C(=C\C1C/C(=C/CCc2ccoc2)C(=O)O1)CCCc1ccoc1 (stereo not drawn) [nitenin]
[1]; I.V. 1 μg/mL of blood, 3, 18 and 23 days after CFA
  sensitivity to mechanical stimuli (von Frey): noticeable decrease of sensitivity to mechanical stimuli
[1]; intraperitoneal, 10 times the I.V. quantity, 23 days after CFA injection
  mitigation effect of pain (score values): clear mitigation effect of pain with score values reaching control levels
[2]
  effect on K+ currents from sdTGNs: inhibited the K^+ currents
[3]
  lower sensitivity of slow currents of large diameter DRG neurons: around 10 times
[4]
  sensitivity to mechanical stimuli, both paws: intense decrease of sensitivity to mechanical stimuli
[5]
  effect on voltage activated Na+ currents: absence of effect
[5]; listed as Nitenin
  effect on voltage activated Na+ currents: not being able to induce relevant changes
[6]
  lower sensitivity of hKv1.6 relative to Kv1.3: ~6 ×
[7]
  IC50: 190 nM
